Test results from PMC2698315 (Journal of Chemical Biology, 2008).

Key:
[1] = test system: Vascular endothelial protein tyrosine phosphatase (VE-PTP); assay: Phosphatase inhibition assay; assay type: biochemical; conditions: 4PL fit, 37 °C, 1 mM substrate, Fig. 3b (quadrant 2)
[2] = target: vaccinia virus VH1-related (VHR) phosphatase (Homo sapiens, UniProt P51452); assay type: biochemical; conditions: 4PL fit, 37 °C, 5 mM substrate, Fig. 3a (quadrant 3)
Sequence of vaccinia virus VH1-related (VHR) phosphatase (P51452 whole entry): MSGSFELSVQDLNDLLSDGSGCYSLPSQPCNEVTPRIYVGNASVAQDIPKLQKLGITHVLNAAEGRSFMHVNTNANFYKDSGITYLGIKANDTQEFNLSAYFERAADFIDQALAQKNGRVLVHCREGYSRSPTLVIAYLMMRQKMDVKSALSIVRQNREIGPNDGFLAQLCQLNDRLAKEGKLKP

| Structure (SMILES) | Hill coefficient [1] | Hill coefficient [2] |
| --- | --- | --- |
| O=C(O[C@@H]1Cc2c(O)cc(O)cc2O[C@@H]1c1cc(O)c(O)c(O)c1)c1cc(O)c(O)c(O)c1 [compound 172, Epigallocatechin-3-monogallate] | 0.55 | – |
| CC(C)(c1ccc(NS(=O)(=O)C(F)(F)F)cc1)c1ccc(C(C)(C)c2ccc(NS(=O)(=O)C(F)(F)F)cc2)cc1 [compound 281, bis(4-trifluoromethylsulfonamidophenyl)-1,4-diisopropylbenzene] | – | 2.7 |
